Values of other authors, collected in publication PMC4022290 (Nuclear medicine and biology, 2013).

System: tumors

D-Phe-Gln-Trp-Ala-Val-Gly-His-Sta-Leu-NH2 [RM2]
uptake and retention in tumors vs agonist GRPr-targeting ligands: improved uptake and retention in tumors as compared to agonist GRPr-targeting ligands
